Patent EP0324328B1, “Use of the N-n-butyl derivative of desoxynojirimycin in the manufacture of a medicament inhibiting HIV-Virus” (priority 1987, dated 1989)

System: HIV-1
Assay: Time to develop CPE after transfer of HIV-1 infected cells to drug-free medium
Assay type: cell-based
Procedure: FIG. 2 is a schematic outline of the test procedure used to determine the relative proportion of HIV-infected cells in cultures containing 0.1 mg/ml of the inhibitory test compound. At various times aliquots of the infected cell suspensions were transferred to inhibitor-free medium and the time taken for the cells to develop cytopathic effect (CPE) was recorded.
After 55 days of culture (O) in the presence of drug no virus appeared during 100 additional days of culture in the absence of drug (after removal of drug).
To determine if there was a gradual reduction of HIV-infected cells in cultures maintained with BuDNJ, aliquots of cells infected with 10^4 TCID of HIV-1 and grown in the presence of 0.1 mg/ml BuDNJ for varying lengths of time were transferred to separate wells and grown in drug-free medium as indicated in […]. The cultures were then monitored for development of CPE, indicative of active HIV replication. The times for the appearance of an advanced CPE were recorded. […]
In order to determine whether or not there was an actual reduction in HIV-infected cells in the presence of BuDNJ, aliquots of the infected cell suspension, grown for varying times in the presence or drug, where transferred to drug-free medium as outlined in Figure 2. The cultures were then monitored for the development of CPE and giant cell formation (indicative of active HIV replication). […]

CCCCN1C[C@H](O)[C@@H](O)[C@H](O)[C@H]1CO [BuDNJ, N-n-butyl-deoxynojirimycin]
days before CPE expression (0.1 mg/ml drug for 55 days of culture, then culture in the absence of drug): > 100 days
proportion of infected cells in the cultures (prolonged exposure, 0.1 mg/ml, result in words): reduced the proportion of infected cells in the cultures
